Assay results from patent US8648063B2, “Potentiation of cancer chemotherapy by 7-(2, 5-dihydro-4-imidazo [1, 2-a] pyridine-3-yl-2,5-dioxo-1H-pyrrol-3-yl)-9-fluoro-1,2,3,4 tetrahydro -2-(1-piperidinyl-carbonyl)-pyrrolo [3,2,1-jk] [1,4] benzodiazepine” (Eli Lilly and Company, priority 2007, dated 2014).

Columns and labels:
NCI-H460 = assay: Caspase-3/7 apoptosis assay (Apo-ONE) in NCI-H460; type: cell-based, human; conditions: 48 hrs
Description: (§1) Apoptosis or programmed cell death is characterized by a set of biochemical reactions, one of which is the induction of caspases. Activated caspases are proteases that participate in a cascade of cleavage events that disable key enzymes responsible for cell homeostasis and repair. Caspases 3 and 7 play key effector roles in apoptosis and can be detected and measured by a fluorescent biochemical assay. The increase of Caspase-3/7 activity in cells is directly correlated to apoptotic activity. (D. W. Nicholson, et al., Nature, 376, 37-43 (1995)) The Promega Apo-ONE Homogeneous Caspase-3/7 Assay Kit was used (Catalog #G7791). The assay buffer consists of 30 mM HEPES (N-(2-hydroxyethyl)piperazine-M-(2-ethanesulfonic acid) pH 7.4, 150 mM NaCl, 50 mM KCl, 10 mM MgCl2, 0.4 mM EGTA (ethylene glycol tetraacetic acid), 0.5% Nonidet P40 (octylphenolpoly(ethyleneglycol ether)), 0.1% CHAPS (3-[(3-Cholamidopropyl)dimeth-ylammonio]-1-propanesulfonate hydrate and 10% sucrose, which lyses/permeabilizes cultured cells and a caspase 3/7 substrate, Z-DEVD (Z-Asp(OMe)-Glu(OMe)-Val-Asp(OMe)), coupled to a profluorescent rhodamine 110. When the buffer-substrate mixture is added to a test sample, the cleavage and subsequent removal of the DEVD peptides by caspase 3/7 activity results in intense fluorescence of the rhodamine 110 leaving group, which is detected by excitation at 499 nm. The amount of fluorescent product is proportional to the amount of caspase 3/7 cleavage activity in the sample.
(§2) To measure the apoptotic effect of test compounds, tumor cells are plated at 1×10^4 cells per well in 96 well plates and incubated overnight at 37° C., with 5% CO2. Tumor cells are treated with test compound at desired concentrations in triplicate, including untreated/negative control wells. The assay plates are re-incubated for 48 hrs. At the end of the incubation period, a mixture of the assay buffer and substrate is added to each sample well. The fluorescence in each well is measured at an excitation wavelength of 485+/−20 nm and an emission wavelength of 530+/−25 nm. The % increase of caspase activity in treated cells is calculated relative to untreated controls.
(§3) The data in Tables 1-12 are expressed as % increase of caspase activity relative to untreated controls unless otherwise noted.

HCT-116 = assay: Caspase-3/7 apoptosis assay (Apo-ONE) in HCT-116; type: cell-based, human; conditions: 48 hrs
Description: as §1, §2, §3

A2780 = assay: Caspase-3/7 apoptosis assay (Apo-ONE) in A2780; type: cell-based, human
Description: as §1
as §2, with “The assay plates are re-incubated for 48 hrs.” left out
as §3

Calu-6 = assay: Caspase-3/7 apoptosis assay (Apo-ONE) in Calu-6; type: cell-based; conditions: 48 hrs
Description: as §1, §2, §3

A549 = assay: Caspase-3/7 apoptosis assay (Apo-ONE) in A549; type: cell-based; conditions: Compound I 300 nM, 48 hrs
Description: as §1, §2, §3

[1] = test system: NCI-H460 human non-small cell lung cancer xenografts; assay: Tumor growth delay, NCI-H460 xenografts; type: in vivo, CD-1 nu/nu mice; conditions: Carboplatin 50 mg/kg IP, Compound I 5 mg/kg IV, alone or combined, every 14 days × 3 cycles, time to 1000 mm^3 vs control
Procedure: (§4) Cultured cells are implanted subcutaneously in the rear flank of female CD-1 nu/nu strain mice which have been acclimated for one week in the animal facility after receipt from the vendor. Mice are randomized into groups of 7 or 8 mice per group and treatment begun when the mean tumor volume reaches ˜100 mm^3 Compound I is dosed IV and the chemotherapeutic agent is given IP. When the agents are given in combination, the chemotherapeutic agent is dosed 60 minutes prior to Compound I. The tumors are measured 2 times per week by electronic calipers to plot growth curves. Tumor growth delay is the increase in median time it takes for a tumor to reach 1000 mm^3 in volume when compared to a control group. Animals are also monitored for fluctuations in body weight and survival.

Colo-205 = assay: Caspase-3/7 apoptosis assay (Apo-ONE) in Colo-205; type: cell-based, human; conditions: Compound I 110 nM, cisplatin 5 μM, 48 hrs
Description: as §1, §2, §3

AGS = assay: Caspase-3/7 apoptosis assay (Apo-ONE) in AGS; type: cell-based; conditions: Cmpd I 900 nM, Cisplatin 5 μM, plates incubated for 72 hours
Description: as §1
as §2, with “The assay plates are re-incubated for 48 hrs.” left out
as §3

KATO III = assay: Caspase-3/7 apoptosis assay (Apo-ONE) in KATO III; type: cell-based; conditions: Cmpd I 600 nM, Cisplatin 10 μM, 48 hrs
Description: as §1, with “The amount of fluorescent product is proportional to the amount of caspase 3/7 cleavage activity in the sample.” left out

MKN 45 = assay: Caspase-3/7 apoptosis assay (Apo-ONE) in MKN 45; type: cell-based; conditions: Cmpd I 600 nM, Cisplatin 10 μM, 48 hrs
Description: as §1
as §2, with “The assay plates are re-incubated for 48 hrs.” left out
as §3

[2] = test system: A2780 human ovarian carcinoma xenografts; assay: Tumor growth delay, A2780 xenografts; type: in vivo, CD-1 nu/nu mice; conditions: cisplatin 5 mg/kg IP, Compound I 5 mg/kg IV, alone or combined, 3 cycles separated by 7 days, time to 1000 mm^3 vs control
Procedure: as §4

[3] = test system: HCT-116 human colorectal carcinoma xenografts; assay: Tumor growth delay, HCT-116 xenografts; type: in vivo, CD-1 nu/nu mice; conditions: cisplatin 10 mg/kg IP, Compound I 5 mg/kg IV, alone or combined, 3 cycles separated by 7 days, time to 1000 mm^3 vs control
Procedure: as §4

[4] = test system: Colo-205 human colorectal carcinoma xenografts; assay: Tumor growth delay, Colo-205 xenografts; type: in vivo, CD-1 nu/nu mice; conditions: cisplatin 5 mg/kg IP, Compound I 5 mg/kg IV, alone or combined, 3 cycles separated by 7 days, time to 1000 mm^3 vs control
Procedure: as §4

## COc1cc([C@@H]2c3cc4c(cc3[C@@H](O[C@@H]3O[C@@H]5CO[C@@H](C)O[C@H]5[C@H](O)[C@H]3O)[C@H]3COC(=O)[C@H]23)OCO4)cc(OC)c1O [Etoposide, etoposide, reference compound]
NCI-H460; NCI H-460, Cmpd I 300 nM, Etoposide 1 μM
  % increase of caspase activity relative to untreated controls: 251%

## Nc1ccn([C@@H]2O[C@H](CO)[C@@H](O)C2(F)F)c(=O)n1 [Gemcitabine, reference compound]
HCT-116; Cmpd I 60 nM, Gemcitabine 30 nM
  % increase of caspase activity relative to untreated controls: 324%
NCI-H460; NCI H-460, Cmpd I 300 nM, Gemcitabine 50 nM
  % increase of caspase activity relative to untreated controls: 1187%

## Nc1nc2[nH]cc(CCc3ccc(C(=O)N[C@@H](CCC(=O)O)C(=O)O)cc3)c2c(=O)[nH]1 [Pemetrexed, pemetrexed, reference compound]
HCT-116; Compound I 30 nM, pemetrexed 60 nM
  % increase of caspase activity relative to untreated controls: 23%
A2780; Compound I 30 nM, pemetrexed 60 nM, 48 hrs
  % increase of caspase activity relative to untreated controls: 0%
NCI-H460; NCI H-460, Cmpd I 300 nM, Pemetrexed 500 nM
  % increase of caspase activity relative to untreated controls: 185%
Calu-6; Calu-6, Compound I 30 nM, pemetrexed 60 nM
  % increase of caspase activity relative to untreated controls: 24%

## N.N.O=C([O-])C1(C(=O)[O-])CCC1.[Pt+2] [carboplatin, reference compound]
A2780; Cmpd I 300 nM, Carboplatin 5 μM, plates incubated for 72 hours
  % increase of caspase activity relative to untreated controls: 78%
A549; carboplatin 10 μM
  % increase of caspase activity relative to untreated controls: 14%
NCI-H460; NCI-H460, Compound I 100 nM, carboplatin 10 μM
  % increase of caspase activity relative to untreated controls: 16%
[1]
  Tumor Growth Delay Mean ± Standard Error: 2 ± 2.9 days

## N.N.[Cl][Pt][Cl] [cisplatin, reference compound]
HCT-116; Compound I 300 nM, cisplatin 5 μM
  % increase of caspase activity relative to untreated controls: 36%
Colo-205
  % increase of caspase activity relative to untreated controls: 8%
A2780; Compound I 60 nM, cisplatin 5 μM, 48 hrs
  % increase of caspase activity relative to untreated controls: 1.5%
A549; cisplatin 1 μM
  % increase of caspase activity relative to untreated controls: 4%
NCI-H460; NCI-H460, Compound I 300 nM, cisplatin 1 μM
  % increase of caspase activity relative to untreated controls: 47%
Calu-6; Calu 6, Cmpd I 33 nM, Cisplatin 2 μM
  % increase of caspase activity relative to untreated controls: 97%
AGS
  % increase of caspase activity relative to untreated controls: 147%
KATO III
  % increase of caspase activity relative to untreated controls: 389%
MKN 45
  % increase of caspase activity relative to untreated controls: 359%
[2]
  Tumor Growth Delay Mean ± Standard Error: 5 ± 1.6 days
[3]
  Tumor Growth Delay Mean ± Standard Error: 23 ± 10.3 days
[4]
  Tumor Growth Delay Mean ± Standard Error: 18 ± 3.5 days
